Assay results as given in ChEMBL document CHEMBL1828590 (J Med Chem, 2011).

System: Mus musculus
Test: Toxicity in po dosed athymic nu/nu Harlan mouse with xenografted human HCT116 cells assessed as treatment-related mortality at 200 mg/kg,
Format: organism-based, HCT-116
Design: dose 200 mg/kg, route oral
Conditions: in vivo

CCCCCCc1nc2cc(/C=C/C(=O)NO)ccc2n1CCN(C)C
Activity: Toxic
